The values that follow come from the supplement of paper PMC10307832.

Holding throughout (assay): relative viability (nuclei count vs DMSO), 5 days (fraction); higher = more cells survive
Compound in the assay “ALW-II-49-7 + Pemetrexed”: Cc1ccc(C(=O)Nc2cccc(C(F)(F)F)c2)cc1Nc1cncc(C(N)=O)c1 [ALW-II-49-7] + Nc1nc2[nH]cc(CCc3ccc(C(=O)N[C@@H](CCC(=O)O)C(=O)O)cc3)c2c(=O)[nH]1 [Pemetrexed] (partner 0.2 µM)
In a few lines:
(§1)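 Cells from lung cancer lines were seeded into 1536-well plates and, one day later, dosed by pin tool. Treatments were either a single drug or a fixed dose of an anchor drug with five library-drug doses (not always all listed) in √10 steps. After 5 days, nuclei were stained in a one-step fixation (final 0.05% Triton X-100, 1% formaldehyde, 1 ug/ml Hoechst) and counted on 4× images, and relative viability is the treated-to-vehicle nuclei ratio, as the median of duplicate plates.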

Compound in the assay “XMD13-2 + Bortezomib”: C1CC1C(=O)NC2=NNC3=C2C=CC(=C3)C4=CC(=CC=C4)C(=O)NC5CC5 [XMD13-2] + CC(C)C[C@H](NC(=O)[C@H](Cc1ccccc1)NC(=O)c1cnccn1)B(O)O [Bortezomib] (partner 0.002 µM)
Summed up:
as §1

Compound in the assay “Dasatinib + Bortezomib”: Cc1nc(Nc2ncc(C(=O)Nc3c(C)cccc3Cl)s2)cc(N2CCN(CCO)CC2)n1 [Dasatinib] + CC(C)C[C@H](NC(=O)[C@H](Cc1ccccc1)NC(=O)c1cnccn1)B(O)O [Bortezomib] (partner 0.002 µM)
In a few lines: as §1

Compound in the assay “ALW-II-49-7 + Lapatinib”: Cc1ccc(C(=O)Nc2cccc(C(F)(F)F)c2)cc1Nc1cncc(C(N)=O)c1 [ALW-II-49-7] + CS(=O)(=O)CCNCc1ccc(-c2ccc3ncnc(Nc4ccc(OCc5cccc(F)c5)c(Cl)c4)c3c2)o1 [Lapatinib] (partner 2 µM)
Summed up:
as §1

Take LCLC-103H: the relative viability in the assay with ALW-II-49-7 + Pemetrexed (first compound 0.08 µM) was determined as 0.533; with ALW-II-49-7 + Pemetrexed (first compound 0.253 µM), 0.502; in the assay with ALW-II-49-7 + Pemetrexed (first compound 0.8 µM), 0.477; in the assay with ALW-II-49-7 + Pemetrexed (first compound 2.53 µM), 0.462; with ALW-II-49-7 + Pemetrexed (first compound 8 µM), 0.419; with XMD13-2 + Bortezomib (first compound 0.05 µM), 1.03. Besides, the relative viability in the assay with XMD13-2 + Bortezomib (first compound 0.1581 µM) came to 1.1; with XMD13-2 + Bortezomib (first compound 0.5 µM), 1.08; with XMD13-2 + Bortezomib (first compound 1.581 µM) it was 1.02; with XMD13-2 + Bortezomib (first compound 5 µM), 1.21; in the assay with Dasatinib + Bortezomib (first compound 0.005 µM) it was 0.987; with Dasatinib + Bortezomib (first compound 0.01581 µM), 1.06. The relative viability with Dasatinib + Bortezomib (first compound 0.05 µM) amounted to 1; with Dasatinib + Bortezomib (first compound 0.1581 µM), 0.918; with Dasatinib + Bortezomib (first compound 0.5 µM) it was 0.613.

In the case of LK-2, the relative viability stood at 0.244 in the assay with ALW-II-49-7 + Pemetrexed (first compound 0.08 µM); 0.282 with ALW-II-49-7 + Pemetrexed (first compound 0.253 µM); 0.316 with ALW-II-49-7 + Pemetrexed (first compound 0.8 µM); 0.201 in the assay with ALW-II-49-7 + Pemetrexed (first compound 8 µM); 1.01 in the assay with ALW-II-49-7 + Lapatinib (first compound 0.08 µM); 0.778 in the assay with ALW-II-49-7 + Lapatinib (first compound 0.253 µM). Also, the results for the relative viability with ALW-II-49-7 + Lapatinib (first compound 0.8 µM), with ALW-II-49-7 + Lapatinib (first compound 2.53 µM) and in the assay with ALW-II-49-7 + Lapatinib (first compound 8 µM) were 0.919, 0.567 and 0.825, respectively.

Take NCI-H358: the relative viability with ALW-II-49-7 + Pemetrexed (first compound 0.08 µM) was 0.163; with ALW-II-49-7 + Pemetrexed (first compound 0.253 µM), 0.181; with ALW-II-49-7 + Pemetrexed (first compound 0.8 µM) it was 0.189; in the assay with ALW-II-49-7 + Pemetrexed (first compound 2.53 µM) it was 0.148; with ALW-II-49-7 + Pemetrexed (first compound 8 µM), 0.155; with ALW-II-49-7 + Lapatinib (first compound 0.08 µM), 0.518. Further, the relative viability in the assay with ALW-II-49-7 + Lapatinib (first compound 0.253 µM) came out at 0.387; in the assay with ALW-II-49-7 + Lapatinib (first compound 0.8 µM) it was 0.423; with ALW-II-49-7 + Lapatinib (first compound 2.53 µM) it was 0.538; with ALW-II-49-7 + Lapatinib (first compound 8 µM), 0.5.

For the cell line NCI-H441, the relative viability with ALW-II-49-7 + Pemetrexed (first compound 0.08 µM) worked out at 0.27; with ALW-II-49-7 + Pemetrexed (first compound 0.253 µM) it was 0.25; with ALW-II-49-7 + Pemetrexed (first compound 0.8 µM) it was 0.26; in the assay with ALW-II-49-7 + Pemetrexed (first compound 2.53 µM) it was 0.234; in the assay with ALW-II-49-7 + Pemetrexed (first compound 8 µM) it was 0.211; with XMD13-2 + Bortezomib (first compound 0.05 µM) it was 0.652. In addition, the relative viability in the assay with XMD13-2 + Bortezomib (first compound 0.1581 µM) worked out at 0.49; with XMD13-2 + Bortezomib (first compound 0.5 µM), 0.524; with XMD13-2 + Bortezomib (first compound 1.581 µM), 0.464; with XMD13-2 + Bortezomib (first compound 5 µM), 0.594; with Dasatinib + Bortezomib (first compound 0.005 µM), 0.487; with Dasatinib + Bortezomib (first compound 0.01581 µM) it was 0.613. Besides, the relative viability in the assay with Dasatinib + Bortezomib (first compound 0.05 µM) was determined as 0.511; with Dasatinib + Bortezomib (first compound 0.1581 µM) it was 0.734; in the assay with Dasatinib + Bortezomib (first compound 0.5 µM), 0.172.

Take NCI-H522: the relative viability with ALW-II-49-7 + Pemetrexed (first compound 0.08 µM) was determined as 0.909; with ALW-II-49-7 + Pemetrexed (first compound 0.253 µM), 0.874; in the assay with ALW-II-49-7 + Pemetrexed (first compound 0.8 µM) it was 0.958; in the assay with ALW-II-49-7 + Pemetrexed (first compound 2.53 µM), 1.07; with ALW-II-49-7 + Pemetrexed (first compound 8 µM) it was 1.01.

Regarding NCI-H727, the relative viability was determined as 0.996 with XMD13-2 + Bortezomib (first compound 0.05 µM); 0.936 with XMD13-2 + Bortezomib (first compound 0.1581 µM); 0.792 in the assay with XMD13-2 + Bortezomib (first compound 0.5 µM); 0.982 with XMD13-2 + Bortezomib (first compound 1.581 µM); 1.03 in the assay with XMD13-2 + Bortezomib (first compound 5 µM); 0.606 in the assay with Dasatinib + Bortezomib (first compound 0.005 µM). The relative viability was 0.663 with Dasatinib + Bortezomib (first compound 0.01581 µM); 0.554 with Dasatinib + Bortezomib (first compound 0.05 µM); 0.463 in the assay with Dasatinib + Bortezomib (first compound 0.1581 µM); 0.258 in the assay with Dasatinib + Bortezomib (first compound 0.5 µM); 0.984 with ALW-II-49-7 + Lapatinib (first compound 0.08 µM); 1.08 with ALW-II-49-7 + Lapatinib (first compound 0.253 µM). Besides, the relative viability with ALW-II-49-7 + Lapatinib (first compound 0.8 µM) came to 0.872; with ALW-II-49-7 + Lapatinib (first compound 2.53 µM), 0.965; in the assay with ALW-II-49-7 + Lapatinib (first compound 8 µM) it was 0.871.

With NCI-H1299, the relative viability in the assay with XMD13-2 + Bortezomib (first compound 0.05 µM) came out at 1.02; with XMD13-2 + Bortezomib (first compound 0.1581 µM), 1.05; with XMD13-2 + Bortezomib (first compound 0.5 µM), 1.05; in the assay with XMD13-2 + Bortezomib (first compound 1.581 µM), 1.05; in the assay with XMD13-2 + Bortezomib (first compound 5 µM), 1.11; with Dasatinib + Bortezomib (first compound 0.005 µM) it was 1.04. The relative viability with Dasatinib + Bortezomib (first compound 0.01581 µM) is 1.02; with Dasatinib + Bortezomib (first compound 0.05 µM), 1.14; with Dasatinib + Bortezomib (first compound 0.1581 µM), 0.612; with Dasatinib + Bortezomib (first compound 0.5 µM) it was 0.485; with ALW-II-49-7 + Lapatinib (first compound 0.08 µM) it was 0.986; in the assay with ALW-II-49-7 + Lapatinib (first compound 0.253 µM), 1.06. The relative viability in the assay with ALW-II-49-7 + Lapatinib (first compound 0.8 µM) is 0.916; with ALW-II-49-7 + Lapatinib (first compound 2.53 µM) it was 0.839; in the assay with ALW-II-49-7 + Lapatinib (first compound 8 µM) it was 0.763.
